Data on 26 compounds can be found in EP4703357A1, “TRIAZOLYL-CONTAINING COMPOUNDS” (Chia Tai Tianqing Pharmaceutical Group Co., Ltd., priority 2023, dated 2024).

As a reminder, the IC50 is the concentration that inhibits the measured activity by half. A lower IC50 goes with inhibition by little substance. A word on the Cmax: it is the maximum level reached in the sampled fluid or tissue. The Tmax is the time at which the peak concentration occurs. A word on the half-life: it is the time in which the quantity being followed falls by half. The low end stands for rapid decline, the high end for slow decline. Usually AUC(0-inf) stands for total exposure, with the tail of the curve extrapolated. Usually clearance stands for a measure of how efficiently the substance is removed, as volume per time. Higher therefore signals efficient removal.

The structures appear in SMILES notation. Like-named read-outs stand apart in the source and are kept apart here.

Data set [1] has as its system Jurkat cells. Nature of the data set: Inhibitory activity on Jurkat cell proliferation (CCK-8). The following applies: Homo sapiens, 72 h incubation. In kind it is cell-based. Here is the method:
(§1) Jurkat cells in a good growth state were collected into a centrifuge tube, adjusted to a cell density of 5 × 10^4 cells/mL, and seeded in a 96-well plate (100 µL/well). The cells were incubated overnight in a cell incubator. Compounds were added using a nanoliter pipettor such that the final concentrations of the compounds were 1000 nM-0.46 nM (the addition was performed in duplicate). Meanwhile, a control was set. After another 72 h of incubation in the cell incubator, the assay reagent CCK-8 (manufacturer: Dojindo Laboratories, Beijing; 10 µL/well) was added. After 2 h of incubation in the cell incubator, absorbance was measured at 450 nm on an Envision microplate reader. A four-parameter analysis was performed, a dose-response curve was fit, and IC50 was calculated.

In data set [2] the test system is OCI-LY10 cells. Nature of the data set: Inhibitory activity on OCI-LY10 cell proliferation (CCK-8). In kind it is cell-based. The following applies: Homo sapiens, 72 h incubation. Here is the method: as §1, with “OCI-LY10 cells” for “Jurkat cells”, “of 9” for “of 5”
Data set [3] can be described thus: In vitro liver microsomal stability, mouse. In kind it is in vitro ADME. The following applies: mouse liver microsome 0.5 mg/mL, NADPH, 37 °C, 1 h. Here is the method:
(§2) Liver microsome incubation samples were prepared by mixing a PBS buffer (pH = 7.4), a liver microsome solution (0.5 mg/mL), a test compound, and an NADPH + MgCl2 solution, and incubated at 37 °C and 300 rpm for 1 h. Zero-hour samples were prepared by mixing a PBS buffer (pH = 7.4), a liver microsome solution (0.5 mg/mL), and a test compound. An acetonitrile solution containing an internal standard was added to the samples, and supernatants were prepared by protein precipitation, diluted, and then assayed by LC/MS/MS. Table 17. In vitro metabolic stability of related compounds in liver microsomes of various species

A short description of data set [4]: In vitro liver microsomal stability, human. In kind it is in vitro ADME. The following applies: human liver microsome 0.5 mg/mL, NADPH, 37 °C, 1 h. How it is done: as §2
Background: Liver microsomes are vesicles of endoplasmic reticulum, rich in cytochrome P450 enzymes.

Data set [5] is described as follows: Mouse pharmacokinetics. Format: in vivo. The following applies: ICR, plasma, po, 3 mg/kg, Mice administered intragastrically 3 mpk; for AUC(0-t): read-out: AUC (0-24). How it is done: ICR mice weighing 18-22 g were randomized into groups of 9 mice per group after 3-5 days of acclimatization and then administered intragastrically at a dose of 3 mg/kg.
Plasma samples to be tested were prepared by taking blood from the orbit at time points of 15 min, 30 min, 1 h, 2 h, 4 h, 6 h, 8 h, 10 h, and 24 h.
20 µL of each plasma sample to be tested and a standard curve sample were taken, and an acetonitrile solution containing an internal standard was added. A supernatant was obtained by protein precipitation, diluted, and then assayed by LC/MS/MS.
Pharmacokinetic parameters were fitted using a non-compartmental model.

A short description of data set [6]: Mouse pharmacokinetics. In kind it is in vivo, ICR mice. The following applies: ICR, plasma; for AUC(0-t): read-out: AUC (0-24).
[7] abbreviates: 1 mg/kg, Mice administered by single intravenous injection 1 mpk.
Where [8] appears, read: po, 3 mg/kg, Mice administered intragastrically 3 mpk.

With `NC(=O)/C(=C/n1cnc(-c2cc(C(F)(F)F)nc(C(F)(F)F)c2)n1)c1ccc(NCC(F)(F)F)nc1` [Compound 46], the IC50 in data set [1] was at most 20 nM; in data set [2], at most 40 nM.
On to `NC(=O)/C(=C/n1cnc(-c2cc(C3CC3)nc(C(F)(F)F)c2)n1)c1cnc(NCC(F)F)nc1` [Compound 14], for which the IC50 is at most 20 nM in data set [1] and at most 40 nM in data set [2]. Also, in data set [3], the “Mouse liver microsome Residuals at 60 min (%)” value was found to be 83.14%. In addition, in data set [4], the “Human liver microsome Residuals at 60 min (%)” value is given as 80.48%.
As to `NC(=O)/C(=C/n1cnc(-c2cc(C(F)(F)F)nc(C(F)(F)F)c2)n1)c1cnc(NCC(F)(F)F)nc1` [Compound 4], the IC50 in data set [1] is at most 20 nM; in data set [2] it was at most 40 nM. Further, the “Mouse liver microsome Residuals at 60 min (%)” value in data set [3] is reported as 93.27%. For the same compound, in data set [4], the “Human liver microsome Residuals at 60 min (%)” value was determined as 100.33%.
Consider `NC(=O)/C(=C/n1cnc(-c2cc(C3CC3)nc(C(F)(F)F)c2)n1)c1cccc(F)n1` [Compound 37], for which the IC50 in data set [1] was at most 20 nM; in data set [2] it was at most 40 nM.
With `C[C@@H](Nc1ncc(/C(=C\n2cnc(-c3cc(C4CC4)nc(C(F)(F)F)c3)n2)C(N)=O)cn1)C(F)(F)F` [Compound 17], the IC50 was at most 20 nM in data set [1] and at most 40 nM in data set [2]. Besides, in data set [3], the “Mouse liver microsome Residuals at 60 min (%)” value is listed as 95.11%. In addition, the “Human liver microsome Residuals at 60 min (%)” value in data set [4] is 93.92%.
The corresponding values for `NC(=O)/C(=C/n1cnc(-c2cc(C3CC3)nc(C(F)(F)F)c2)n1)c1cnc2cccnc2c1` [Compound 33] are at most 20 nM, at most 40 nM, 98.21% and 104.79%.
Take `NC(=O)/C(=C/n1cnc(-c2cc(C(F)(F)F)nc(C(F)(F)F)c2)n1)c1ccc(C(F)(F)F)nc1` [Compound 53]: the IC50 was at most 20 nM in data set [1] and at most 40 nM in data set [2].
For `Cc1ccc(/C(=C\n2cnc(-c3cc(C4CC4)nc(C(F)(F)F)c3)n2)C(N)=O)cn1` [38(38-A)], the IC50 in data set [1] was at most 20 nM. Also, the IC50 in data set [2] is at most 40 nM. In addition, the “Mouse liver microsome Residuals at 60 min (%)” value in data set [3] is given as 83.25%. The “Human liver microsome Residuals at 60 min (%)” value in data set [4] amounted to 102.40%. Also, in data set [5], the peak level (Cmax) was 874 ng/mL, the Tmax is 1 h, the half-life is 2.55 h and the AUC(0-t) was found to be 3480 ng·h/mL. Moreover, in data set [6] (setting [7]), the AUC(0-inf) worked out at 1040 ng·h/mL, the clearance was 16 mL/min/kg, the half-life is 1.41 h and the AUC(0-t) amounted to 1040 ng·h/mL. The same compound returned an AUC(0-inf) in data set [6] (setting [8]) of 3800 ng·h/mL.
In the case of `NC(=O)/C(=C/n1cnc(-c2cc(C3CC3)nc(C(F)(F)F)c2)n1)c1ccnc(F)c1` [Compound 36], the IC50 in data set [1] is at most 20 nM; in data set [2], at most 40 nM.
Regarding `NC(=O)/C(=C/n1cnc(-c2cc(C3CC3)nc(C(F)(F)F)c2)n1)c1cnc2ccccc2c1` [Compound 26], the results for the IC50 in data set [1] and in data set [2] were at most 20 nM and at most 40 nM, respectively. Also, in data set [3], the “Mouse liver microsome Residuals at 60 min (%)” value was determined as 90.27%. For the same compound, the “Human liver microsome Residuals at 60 min (%)” value in data set [4] turned out to be 96.64%.
In the case of `NC(=O)/C(=C/n1cnc(-c2cc(C(F)(F)F)nc(C(F)(F)F)c2)n1)c1ccc(NCC(F)F)nc1` [Compound 54], the half-inhibitory concentration (IC50) in data set [1] was at most 20 nM; in data set [2] it was at most 40 nM.
The corresponding values for `NC(=O)/C(=C/n1cnc(-c2cc(C3CC3)nc(C(F)(F)F)c2)n1)c1ccc2ncccc2c1` [Compound 57] are at most 20 nM and at most 40 nM.
The like results for `NC(=O)/C(=C/n1cnc(-c2cc(C3CC3)nc(C(F)(F)F)c2)n1)c1ccc(NCC(F)F)nc1` [Compound 41] were, in that order, at most 20 nM and at most 40 nM.
Consider `NC(=O)C(=Cn1cnc(-c2cc(C(F)(F)F)nc(C(F)(F)F)c2)n1)c1cncnc1` [Compound 1], for which the IC50 is at most 20 nM in data set [1] and at most 40 nM in data set [2]. Further, the “Mouse liver microsome Residuals at 60 min (%)” value in data set [3] is recorded as 97.97%. Also, in data set [4], the “Human liver microsome Residuals at 60 min (%)” value was determined as 101.38%.
For `NC(=O)/C(=C/n1cnc(-c2cc(C3CC3)nc(C(F)(F)F)c2)n1)c1ccc(C(F)(F)F)nc1` [Compound 60], the IC50 in data set [1] is at most 20 nM; in data set [2], at most 40 nM.
`NC(=O)/C(=C/n1cnc(-c2cc(C3CC3)nc(C(F)(F)F)c2)n1)c1ccncc1` [Compound 43]: the IC50 in data set [1] was at most 20 nM; in data set [2], at most 40 nM.
On to `NC(=O)/C(=C/n1cnc(-c2cc(C(F)(F)F)nc(C(F)(F)F)c2)n1)c1cnc(NCC(F)F)nc1` [2(2-A)], for which the IC50 in data set [1] was at most 20 nM. This compound returned an IC50 in data set [2] of at most 40 nM. The “Mouse liver microsome Residuals at 60 min (%)” value in data set [3] was determined as 87.82%. In addition, the “Human liver microsome Residuals at 60 min (%)” value in data set [4] is 92.23%. For the same compound, in data set [5], the concentration peaked (Cmax) at 483 ng/mL, the Tmax came to 3 h, the half-life is 2.57 h and the AUC(0-t) was 2730 ng·h/mL. Also, in data set [6] (setting [7]), the AUC(0-inf) was 879 ng·h/mL, the clearance is 19 mL/min/kg, the half-life is 1.26 h and the AUC(0-t) worked out at 874 ng·h/mL. Further, the AUC(0-inf) in data set [6] (setting [8]) came out at 2730 ng·h/mL.
With `NC(=O)/C(=C/n1cnc(-c2cc(C3CC3)nc(C(F)(F)F)c2)n1)c1cnc(NCC(F)(F)F)nc1` [Compound 16], the IC50 is at most 20 nM in data set [1] and at most 40 nM in data set [2]. In addition, in data set [3], the “Mouse liver microsome Residuals at 60 min (%)” value was determined as 90.60%. The “Human liver microsome Residuals at 60 min (%)” value in data set [4] worked out at 88.75%.
The like results for `N#Cc1cncc(/C(=C\n2cnc(-c3cc(C4CC4)nc(C(F)(F)F)c3)n2)C(N)=O)c1` [Compound 30] were, in that order, at most 20 nM, at most 40 nM, 89.94% and 98.75%.
For the compound `NC(=O)/C(=C/n1cnc(-c2cc(C3CC3)nc(C(F)(F)F)c2)n1)c1ccc2cccnc2c1` [59(59-A)], the IC50 in data set [1] was at most 20 nM; in data set [2], at most 40 nM.
Regarding `NC(=O)/C(=C/n1cnc(-c2cc(C3CC3)nc(C(F)(F)F)c2)n1)c1cncnc1` [Compound 13], the IC50 in data set [1] is at most 20 nM; in data set [2], at most 40 nM. Moreover, in data set [3], the “Mouse liver microsome Residuals at 60 min (%)” value is given as 91.15%. In addition, in data set [4], the “Human liver microsome Residuals at 60 min (%)” value turned out to be 93.23%.
Take `NC(=O)/C(=C/n1cnc(-c2cc(C3CC3)nc(C(F)(F)F)c2)n1)c1cccnc1F` [Compound 32]: the IC50 in data set [1] was at most 20 nM; in data set [2], at most 40 nM. Also, the “Mouse liver microsome Residuals at 60 min (%)” value in data set [3] worked out at 95.08%. In addition, in data set [4], the “Human liver microsome Residuals at 60 min (%)” value was found to be 100.32%.
As to `NC(=O)/C(=C/n1cnc(-c2cc(C3CC3)nc(C(F)(F)F)c2)n1)c1ccc(NCC(F)(F)F)nc1` [Compound 40], the IC50 is at most 20 nM in data set [1] and at most 40 nM in data set [2].
For `N#Cc1cncc(/C(=C\n2cnc(-c3cc(C(F)(F)F)nc(C(F)(F)F)c3)n2)C(N)=O)c1` [Compound 10], the IC50 in data set [1] was at most 20 nM; in data set [2], at most 40 nM. For the same compound, in data set [3], the “Mouse liver microsome Residuals at 60 min (%)” value is recorded as 93.99%. The “Human liver microsome Residuals at 60 min (%)” value in data set [4] turned out to be 95.75%.
The corresponding values for `NC(=O)/C(=C/n1cnc(-c2cc(C3CC3)nc(C(F)(F)F)c2)n1)c1ccc(F)nc1` [Compound 39] are at most 20 nM, at most 40 nM, 89.18% and 106.91%.
The like results for `C[C@@H](Nc1ncc(/C(=C\n2cnc(-c3cc(C(F)(F)F)nc(C(F)(F)F)c3)n2)C(N)=O)cn1)C(F)(F)F` [Compound 5] were, in that order, at most 20 nM, at most 40 nM, 99.03% and 97.64%.
